Where two headings read alike, the source gives them in different places.

[1] abbreviates: high risk subjects with injection of iodinated contrast in the cardiac arteries, total 1.96 mEq/kg, 40% prior to and 60% during and after the contrast, sodium concentration 154 mEq/L, death primarily from cardiac failure.

Consider `O=C([O-])O.[Na+]` [sodium bicarbonate solution, sodium bicarbonate], for which the incidence of death reads like this: under setting [1], 3.2%; (subjects with other types of iodinated contrast injection (other non-cardiac arteries), compared between both study cohorts) “same incidence of death in both study cohorts”.
Compound `[Cl-].[Na+]` [sodium chloride (saline), sodium chloride] displayed an incidence of death under setting [1] of 10.1%.

Values taken from patent US9827265B1, “Method for attenuating free radical formation resulting from a bodily insult” (MD Scientific, LLC, priority 2012, dated 2017).
